From patent US11484539B2, “Compounds and their uses for alleviating menopause-associated symptoms” (Estetra SPRL, priority 2018, dated 2022)

System: post-menopausal women
Assay: Number of patients with biopsies (endometrial biopsy)
Format: in vivo
Protocol: If during the course of the trial, a double layer endometrial thickness ≥15 mm was detected on TVUS and/or abnormal uterine bleeding (in the judgement of the gynecologist in light of the oestrogen therapy) was reported by a non-hysterectomised person, they underwent an endometrial biopsy and was treated with progestin (10 mg dydrogesterone) QD until end of Week 11 in a sequential way (i.e., a 14 day progestin treatment period followed by a 14 day progestin treatment pause) in addition to the E4/placebo treatment. […] If an abnormal uterine bleeding occurred again after a first normal endometrial biopsy, a thorough gynaecological examination and a TVUS were performed. If necessary in the judgment of the gynecologist, a second endometrial biopsy was performed. After the E4/Placebo treatment period, all non-hysterectomised subjects (including those having received the progestin previously) received progestin therapy for 14 days with 10 mg dydrogesterone QD.
1. Number of patients with biopsies

Number of patients with biopsies (2.5 mg): 4
Number of patients with biopsies (5 mg): 5
Number of patients with biopsies (10 mg): 11
Number of patients with biopsies (15 mg): 9
Requirements for biopsies compared with the 10 mg per day group (15 mg per day group): less requirements for biopsies
Compound: C[C@]12CC[C@@H]3c4ccc(O)cc4CC[C@H]3[C@@H]1[C@@H](O)[C@@H](O)[C@@H]2O [E4, 1,3,5 (10)-estratrien-3,15alpha,16alpha,17beta-tetrol]
